# Results from US11478466B2, “Small molecule promoting osteoblast differentiation” (Cornell University, priority 2019, dated 2022).
# Experiments:
# [1] = test system: RAW 264.7 murine macrophage cell line; assay: Osteoclast differentiation (TRAP staining, qRT-PCR) in RAW 264.7 cells; assay type: cell-based, mouse
# Experimental: To address the specificity of DIPQUO for stimulating an osteogenic versus osteoclastic program, the RAW 264.7 murine macrophage cell line was assayed for osteoclast differentiation by staining for tartrate-resistant acid phosphatase (TRAP) to distinguish multinucleated osteoclasts from macrophages. […] Thus, DIPQUO appears to be primarily supportive of osteogenesis.
# The RAW 264.7 macrophage cell line was purchased from ATCC and maintained in DMEM with 10% FBS. Cells were treated with 10 μM DIPQUO or 50 ng/ml RANKL (Sigma) for 4 days. Cells were fixed in 70% acetone/10% formaldehyde/20% citrate and TRAP staining was achieved using the Leukocyte Acid Phosphatase kit (Sigma 387A-1KT).
# For quantitative RT-PCR analysis of gene expression in C2C12 cultures, cells were treated for 2 days with 10 μM DIPQUO and harvested into Trizol reagent (Invitrogen). One microgram of RNA was reverse transcribed using the VILO-RT kit (Invitrogen) to generate cDNA, which was diluted 1:25 in RNase-free H2O for qPCR with Sybr green using the Roche 480 II LightCycler and the 2^−ΔΔCT method (Livak and Schmittgen, 2001). For analysis of osteoclast gene expression, RAW 264.7 cells were treated with DMSO, 50 ng/ml RANKL, or 10 μM DIPQUO for 4 days, then harvested into Trizol reagent and processed as above. Mouse qPCR primers are as follows. Runx2: F([…]) (SEQ ID NO:1); R([…]) (SEQ ID NO:2); Dlx5: F([…]) (SEQ ID NO:3); R([…]) (SEQ ID NO:4); Osterix: F([…]) (SEQ ID NO:5); R([…]) (SEQ ID NO:6); ALP: F([…]) (SEQ ID NO:7); R([…]) (SEQ ID NO:8); Osteocalcin: F([…]) (SEQ ID NO:9); R([…]) (SEQ ID NO:10); Osteoactivin: F([…]) (SEQ ID NO:11); R([…]) (SEQ ID NO:12); CTSK: F([…]) (SEQ ID NO:13); R([…]) (SEQ ID NO:14); MMP9: F([…]) (SEQ ID NO:15); R([…]) (SEQ ID NO:16); Gapdh F([…]) (SEQ ID NO:17); R([…]) (SEQ ID NO:18). RNA-seq studies were carried out with the assistance of the Weill Cornell Genomics Core Facility, using the Illumina HiSeq4000 next-generation sequencer to generate reads from cDNA libraries generated from three biological replicates of day 2 DMSO- or DIPQUO-treated C2C12 cells. […]
# zebrafish larvae = assay: Larval zebrafish notochord ossification model (alizarin red); assay type: in vivo, Danio rerio; conditions: 15 μM, 24-h pulse 7-8 dpf, stained at 9 dpf, vs DMSO or inert analogs
# From the text: DIPQUO Promotes and Accelerates Bone Mineralization In Vivo To address whether the observed effects of DIPQUO on osteoblast differentiation and maturation could extend to an in vivo bone model, we utilized the zebrafish, Danio rerio. First, zebrafish were used as a model system to examine developmental ossification via direct vertebral specification through conversion of the notochord sheath (Inohaya et al., 2007; Laue et al., 2008). During zebrafish larval stages, the extent and pattern of ossification observable at discrete developmental time points are susceptible to perturbation by cytokines or genetic modulation. The contribution of extrinsic factors to notochord ossification and patterning can be measured by alizarin red staining in a manner analogous to its application in gauging osteoblast maturation in cultured cells.
# Animals studies were performed according to protocols approved by the WCMC IACUC. Wildtype (AB/TU hybrid) zebrafish were maintained at 28.5° C. Larval fish were treated from 7 dpf to 8 dpf in tank water with DMSO or with a 24-hour pulse of 15 μM DIPQUO or inert analog BT344 or BT345, and were fixed at 9 dpf in 4% paraformaldehyde overnight rocking at 4° C. Fixed larvae were washed in PBS-0.1% Tween-20 (PBST), followed by 50% ethanol/50% PBST. […] Images were acquired on a Zeiss LSM 800 confocal microscope and Sp7^+/col10a1^+ cells quantified using ImageJ.
# p38-α = assay: Isoform-specific immunoprecipitation, p38-α activity in C2C12 cells; assay type: cell-based, mouse; conditions: C2C12, 10 μM DIPQUO
# From the text: There are four separate p38 isoforms: α, β, γ, and δ. The respective roles of the α and β isoforms in bone differentiation have been dissected to the extent that p38-β is known to be involved specifically in skeletogenesis (Greenblatt et al., 2010), while p38-α has roles that are both wide-ranging and highly specific, for instance in dentition (Greenblatt et al., 2015). Accordingly, we used small interfering RNA-mediated knockdown to probe the specificity of DIPQUO to block the activity of one or the other isoform (FIG. 6E). […] To confirm the biological significance of this observation, the α and β isoforms were immunoprecipitated from C2C12 cells and analyzed for relative activity levels.
structure (smiles),measurement,setting,value
"Cc1cc(C)c2[nH]c(=O)c(-c3[nH]cnc3-c3ccccc3)cc2c1 [RU-0226606, 6,8-dimethyl-3-(4-phenyl-1H-imidazol-5-yl)quinolin-2(1H)-one]",expression of CTSK and MMP9 (qRT-PCR),"[1]; RAW 264.7, 10 μM, 4 days","upregulated, albeit to a lower level compared with RANKL induction"
same,TRAP staining of multinucleated osteoclasts,"[1]; RAW 264.7, 4 days, DIPQUO 10 μM, RANKL 50 ng/ml",comparatively few TRAP-positive cells
same,mineralization of vertebral primordia (alizarin red),zebrafish larvae,accelerate and accentuate mineralization of incipient vertebral primordia
same,p38-α isoform activity after immunoprecipitation,p38-α,suppressed
